Source: the CheMixHub ionic liquid set

Assay: xn = mol fraction of the nth substance listed

CCCCCCCCCCCCCCn1cc[n+](C)c1.[Br-] + CC[N+](CC)(CC)CC.[Br-] + O
electrical conductivity [S/m], 101 kPa, frequency 0.001 MHz
Settings	298.15 K	308.15 K	318.15 K
x1 = 4.74e-06, x2 = 0	0.00249	0.00401	0.00409
x1 = 4.74e-06, x2 = 1.802e-05	0.0133	0.0165	0.0198
x1 = 4.74e-06, x2 = 3.604e-05	0.0213	0.0264	0.0318
x1 = 4.74e-06, x2 = 9.009e-05	0.0427	0.053	0.063
x1 = 9.35e-06, x2 = 0	0.00459	0.00671	0.00708
x1 = 9.35e-06, x2 = 1.802e-05	0.0152	0.0187	0.0223
x1 = 9.36e-06, x2 = 3.604e-05	0.023	0.0283	0.0345
x1 = 9.36e-06, x2 = 9.009e-05	0.0444	0.0542	0.0648
x1 = 1.386e-05, x2 = 0	0.0065	0.0093	0.0101
x1 = 1.386e-05, x2 = 1.802e-05	0.017	0.0209	0.025
x1 = 1.386e-05, x2 = 3.604e-05	0.0249	0.0306	0.0365
x1 = 1.387e-05, x2 = 9.009e-05	0.0459	0.056	0.0665
x1 = 1.825e-05, x2 = 0	0.00834	0.011	0.0127
x1 = 1.826e-05, x2 = 1.802e-05	0.0185	0.0231	0.0271
x1 = 1.826e-05, x2 = 3.604e-05	0.0264	0.0325	0.0389
x1 = 1.827e-05, x2 = 9.009e-05	0.0472	0.058	0.0681
x1 = 2.252e-05, x2 = 0	0.0101	0.0135	0.0154
x1 = 2.253e-05, x2 = 1.802e-05	0.0201	0.0251	0.0294
x1 = 2.253e-05, x2 = 3.604e-05	0.0281	0.0343	0.0416
x1 = 2.255e-05, x2 = 9.009e-05	0.0479	0.0594	0.0705
x1 = 2.669e-05, x2 = 0	0.0119	0.0154	0.0182
x1 = 2.669e-05, x2 = 1.802e-05	0.0216	0.0268	0.0318
x1 = 2.67e-05, x2 = 3.604e-05	0.0295	0.0364	0.0432
x1 = 2.671e-05, x2 = 9.009e-05	0.049	0.0611	0.0723
x1 = 3.076e-05, x2 = 0	0.0136	0.0173	0.0206
x1 = 3.077e-05, x2 = 1.802e-05	0.0232	0.0286	0.0341
x1 = 3.077e-05, x2 = 3.604e-05	0.0307	0.0381	0.0451
x1 = 3.079e-05, x2 = 9.009e-05	0.0493	0.0618	0.0738
x1 = 3.474e-05, x2 = 0	0.0152	0.0199	0.0232
x1 = 3.475e-05, x2 = 1.802e-05	0.0248	0.0305	0.0362
x1 = 3.475e-05, x2 = 3.604e-05	0.0315	0.0399	0.0472
x1 = 3.477e-05, x2 = 9.009e-05	0.0495	0.0619	0.0748
x1 = 3.862e-05, x2 = 0	0.0167	0.0218	0.0253
x1 = 3.862e-05, x2 = 1.802e-05	0.0261	0.0324	0.0384
x1 = 3.863e-05, x2 = 3.604e-05	0.0318	0.0405	0.0492
x1 = 3.865e-05, x2 = 9.009e-05	0.0494	0.0621	0.0752
x1 = 4.24e-05, x2 = 0	0.0183	0.0238	0.028
x1 = 4.241e-05, x2 = 1.802e-05	0.0265	0.0333	0.0404
x1 = 4.242e-05, x2 = 3.604e-05	0.0322	0.0409	0.0511
x1 = 4.244e-05, x2 = 9.009e-05	0.0497	0.0622	0.0753
x1 = 4.613e-05, x2 = 0	0.0192	0.0252	0.0303
x1 = 4.614e-05, x2 = 1.802e-05	0.0271	0.034	0.042
x1 = 4.615e-05, x2 = 3.604e-05	0.0326	0.0414	0.0518
x1 = 4.617e-05, x2 = 9.009e-05	0.0499	0.0623	0.0756
x1 = 4.973e-05, x2 = 0	0.0199	0.0265	0.0322
x1 = 4.974e-05, x2 = 1.802e-05	0.0274	0.0345	0.0432
x1 = 4.975e-05, x2 = 3.604e-05	0.0329	0.0419	0.0525
x1 = 4.978e-05, x2 = 9.009e-05	0.05	0.0627	0.0758
x1 = 5.334e-05, x2 = 0	0.0204	0.0273	0.0335
x1 = 5.335e-05, x2 = 1.802e-05	0.0278	0.035	0.0441
x1 = 5.336e-05, x2 = 3.604e-05	0.0333	0.0423	0.0531
x1 = 5.339e-05, x2 = 9.009e-05	0.0501	0.063	0.0761
x1 = 5.676e-05, x2 = 0	0.0209	0.0282	0.0345
x1 = 5.677e-05, x2 = 1.802e-05	0.0283	0.0354	0.0449
x1 = 5.678e-05, x2 = 3.604e-05	0.0336	0.0428	0.0534
x1 = 5.681e-05, x2 = 9.009e-05	0.0503	0.063	0.0763
x1 = 6e-05, x2 = 0	0.0213	0.0288	0.0356
x1 = 6.001e-05, x2 = 1.802e-05	0.0286	0.0359	0.0455
x1 = 6.003e-05, x2 = 3.604e-05	0.0338	0.0432	0.0541
x1 = 6.006e-05, x2 = 9.009e-05	0.0505	0.0633	0.0768
x1 = 6.343e-05, x2 = 0	0.0217	0.0294	0.0365
x1 = 6.344e-05, x2 = 1.802e-05	0.0289	0.0364	0.0461
x1 = 6.345e-05, x2 = 3.604e-05	0.0341	0.0435	0.0542
x1 = 6.349e-05, x2 = 9.009e-05	0.0507	0.0636	0.0773
x1 = 6.667e-05, x2 = 0	0.0221	0.03	0.0372
x1 = 6.668e-05, x2 = 1.802e-05	0.0293	0.0368	0.0467
x1 = 6.67e-05, x2 = 3.604e-05	0.0344	0.0439	0.0548
x1 = 6.673e-05, x2 = 9.009e-05	0.0508	0.0637	0.0777
x1 = 6.973e-05, x2 = 0	0.0225	0.0305	0.0377
x1 = 6.975e-05, x2 = 1.802e-05	0.0296	0.0373	0.0473
x1 = 6.976e-05, x2 = 3.604e-05	0.0346	0.0442	0.0552
x1 = 6.98e-05, x2 = 9.009e-05	0.0511	0.0641	0.0781
x1 = 7.28e-05, x2 = 0	0.0229	0.0311	0.0383
x1 = 7.281e-05, x2 = 1.802e-05	0.0299	0.0375	0.0478
x1 = 7.282e-05, x2 = 3.604e-05	0.0349	0.0445	0.0555
x1 = 7.287e-05, x2 = 9.009e-05	0.0512	0.0646	0.0785
x1 = 7.586e-05, x2 = 0	0.0233	0.0316	0.0389
x1 = 7.587e-05, x2 = 1.802e-05	0.0302	0.0382	0.0482
x1 = 7.589e-05, x2 = 3.604e-05	0.0351	0.0453	0.0561
x1 = 7.593e-05, x2 = 9.009e-05	0.0516	0.065	0.0786
x1 = 7.892e-05, x2 = 0	0.0236	0.0321	0.0396
x1 = 7.894e-05, x2 = 1.802e-05	0.0304	0.0389	0.0485
x1 = 7.895e-05, x2 = 3.604e-05	0.0353	0.0455	0.0568
x1 = 7.9e-05, x2 = 9.008e-05	0.0519	0.0654	0.0789
x1 = 8.18e-05, x2 = 0	0.024	0.0326	0.0408
x1 = 8.182e-05, x2 = 1.802e-05	0.0307	0.0391	0.0492
x1 = 8.184e-05, x2 = 3.604e-05	0.0356	0.0458	0.0571
x1 = 8.188e-05, x2 = 9.008e-05	0.0522	0.0658	0.0792
x1 = 8.451e-05, x2 = 0	0.0243	0.0329	0.0414
x1 = 8.452e-05, x2 = 1.802e-05	0.0308	0.0395	0.0496
x1 = 8.454e-05, x2 = 3.604e-05	0.0358	0.0462	0.0573
x1 = 8.459e-05, x2 = 9.008e-05	0.0524	0.066	0.0796
x1 = 8.739e-05, x2 = 0	0.0246	0.0333	0.0418
x1 = 8.741e-05, x2 = 1.802e-05	0.0312	0.0399	0.0502
x1 = 8.742e-05, x2 = 3.604e-05	0.036	0.0464	0.058
x1 = 8.747e-05, x2 = 9.008e-05	0.0526	0.0665	0.0801

CC(=O)C(=O)O + CC[N+](CC)(CC)CC.[Cl-]
101.3 kPa, x2 = 0.3333
Settings	viscosity [mPa·s]
298.15 K	89.1
308.15 K	57.5
318.15 K	37.5
328.15 K	24.05
338.15 K	16.05

O=C(O)CO + CC[N+](CC)(CC)CC.[Cl-]
101 kPa, x1 = 0.6667
Settings	viscosity [mPa·s]
303.15 K	268
323.15 K	87
353.15 K	27

CC[N+](CC)(CC)CC.O=[N+]([O-])[O-] + CC[NH3+].O=[N+]([O-])[O-]
101 kPa, frequency 0.00293 MHz
Settings	electrical conductivity [S/m]
293.15 K, x1 = 0.15	1.01
303.15 K, x1 = 0.0501	2.13
303.15 K, x1 = 0.15	1.42
303.15 K, x1 = 0.35	0.565
308.15 K, x1 = 0.2001	1.34
313.15 K, x1 = 0.1	2.33
318.15 K, x1 = 0.2995	1.04
323.15 K, x1 = 0.15	2.46

101 kPa
Settings	viscosity [mPa·s]
293.15 K, x1 = 0.15	74.1
303.15 K, x1 = 0.0501	35.5
303.15 K, x1 = 0.15	50
303.15 K, x1 = 0.35	131
308.15 K, x1 = 0.2001	50.4
313.15 K, x1 = 0.1	30.3
318.15 K, x1 = 0.2995	50.9
323.15 K, x1 = 0.15	26.2
328.15 K, x1 = 0.2001	26.6
328.15 K, x1 = 0.2567	32.4
328.15 K, x1 = 0.35	48.3
333.15 K, x1 = 0.15	20.1
343.15 K, x1 = 0.15	15.7
348.15 K, x1 = 0.2001	16
348.15 K, x1 = 0.35	26.3
353.15 K, x1 = 0.1	11
353.15 K, x1 = 0.35	23.4

C[N+]1(CCOCCOCCOCC[N+]2(C)CCCC2)CCCC1.O=S(=O)([N-]S(=O)(=O)C(F)(F)F)C(F)(F)F.O=S(=O)([N-]S(=O)(=O)C(F)(F)F)C(F)(F)F + CC[n+]1ccn(C)c1.N#C[N-]C#N + O=S(=O)([N-]S(=O)(=O)C(F)(F)F)C(F)(F)F.[Li+]
100 kPa, x1 = 0.1489, x2 = 0.7484
Settings	electrical conductivity [S/m]
298 K	0.698
303 K	0.827
313 K	1.1
323 K	1.43
333 K	1.81
343 K	2.21

F[P-](F)(F)(F)(F)F.[Li+] + CC[n+]1ccn(C)c1.O=S(=O)([N-]S(=O)(=O)C(F)(F)F)C(F)(F)F
electrical conductivity [S/m], 101 kPa
Settings	x2 = 0.7088	x2 = 0.729	x2 = 0.8022	x2 = 0.8765	x2 = 0.9623
288.15 K	–	0.124	0.208	0.431	0.52
298.15 K	0.195	0.222	0.355	0.651	0.775
333.15 K	0.816	0.865	1.17	1.72	1.95

F[P-](F)(F)(F)(F)F.[Li+] + CC[n+]1ccn(C)c1.O=S(=O)([O-])C(F)(F)F
electrical conductivity [S/m], 101 kPa
Settings	x1 = 0.007746	x1 = 0.01537	x2 = 0.9673	x2 = 0.9746
288.15 K	0.614	0.559	–	0.532
298.15 K	0.898	0.816	0.786	0.785
333.15 K	2.3	2.08	2.08	2.02
